Values of other authors in patent publication US20220031887A1, “Active Materials, Surfaces, Surface Treatments And Methods Using Inclusion Complex Formers For Pathogen Reduction” (priority 2020, published 2022).

## O=C1OC2(c3ccccc31)c1cc(Br)c(O)c(Br)c1Oc1c2cc(Br)c(O)c1Br [Eosin Y]
In ideal solvent
  Epsilon: 112,000
Peak absorption in visible light
  Lambda Max: 525
